Measurements reported in patent US7514422B2, “5HT2c receptor modulators” (Arena Pharmaceuticals, Inc., priority 2002, dated 2009).

Target: T1, human 5-HT2c receptor (Homo sapiens, UniProt P28335)
T1 construct: expressed in transfected cells; host or cells: HEK293
T1 sequence (P28335 33-458): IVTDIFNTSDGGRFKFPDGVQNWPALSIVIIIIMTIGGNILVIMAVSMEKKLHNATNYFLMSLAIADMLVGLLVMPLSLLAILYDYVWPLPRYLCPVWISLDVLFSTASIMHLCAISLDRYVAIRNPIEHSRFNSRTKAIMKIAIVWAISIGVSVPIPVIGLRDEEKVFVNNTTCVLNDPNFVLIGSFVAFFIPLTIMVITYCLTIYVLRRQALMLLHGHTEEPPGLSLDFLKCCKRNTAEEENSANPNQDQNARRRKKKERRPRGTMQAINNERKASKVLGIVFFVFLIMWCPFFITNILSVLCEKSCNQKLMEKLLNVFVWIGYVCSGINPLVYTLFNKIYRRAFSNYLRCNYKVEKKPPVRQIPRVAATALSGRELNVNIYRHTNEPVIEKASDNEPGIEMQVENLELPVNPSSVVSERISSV
Experiment: Intracellular IP3 Accumulation Assay
Assay type: cell-based
Settings: HEK293 cells transfected with human 5-HT2c receptor; averages of at least two trials; read-out: 5-HT2C (IC50) IP Accumulation Assay
Protocol: HEK293 cells were transfected in 15 cm sterile dishes with or without (control) 16 ug of human 5-HT2c receptor cDNA using 25 ul of lipofectamine. Cells were then incubated for 34 hours at 37° C/5% CO2 and then transfection media was removed and replaced with 100 ul of DMEM. Cells were then plated onto […] sterile dishes. The next day cells were plated into 96 well PDL microtiter plates at a density of 55K/0.2 ml. Six hours latter, media was exchanged with [^3H]inositol (0.25 uCi/well) in inositol free DMEM and plates were incubated at 37° C./5% CO2 overnight. The next day, wells were aspirated and 200 ul of DMEM containing test compound, 10 uM pargyline, and 10 mM LiCl was added to appropriate wells. Plates were then incubated at 37° C./5% CO2 for three hours followed aspiration and by addition of fresh ice cold stop solution (1M KOH, 19 mM Na-borate, 3.8 mM EDTA) to each well. Plates were kept on ice for 5-10 min and the wells were neutralized by addition of 200 ul of fresh ice cold neutralization solution (7.5% HCl). Plates were then frozen until further processing is desired. The lysate was then transferred into 1.5 ml Eppendorf tubes and 1 ml of chloroform/methanol (1:2) was added/tube. The solution was vortexed for 15 seconds and the upper phase was applied to a Biorad AG1-X8™ anion exchange resin (100-200 mesh). First, the resin was washed with water at 1:1.25 W/V and 0.9 ml of upper phase was loaded onto the column. The column was then washed with 10 ml of 5 mM myo-inositol and 10 ml of 5 mM Na-borate/60 mM Na-formate. The inositol tris phosphates were eluted into scintillation vials containing 10 ml of scintillation cocktail with 2 ml of 0.1 M formic acid/1 M ammonium formate. The columns were regenerated by washing with 10 ml of 0.1 M formic acid/3M ammonium formate and rinsed twice with dd H2O and stored at 4° C. in water.

Row | Structure (SMILES) | IC50 [nM]
1 | C=CCOc1cc2c(cc1I)C(C)CNCC2 (racemic) [Example 12, (R,S) 7-Allyloxy-8-iodo-1-methyl-2,3,4,5-tetrahydro-1H-3-benzazepine] | 6.3
2 | CC1CNCCc2cc(O)c(Br)cc21 (racemic) [Example 4, (R,S) 8-Bromo-7-hydroxy-1-methyl-2,3,4,5tetrahydro-1H-3-benzazepine] | 2.1
3 | CCC1CNCCc2cc(OC)c(Br)cc21 (racemic) [Example 19, (R,S) 8-Bromo-1-ethyl-7-methoxy-2,3,4,5-tetrahydro-1H-3-benzazepine] | 18
4 | CC1CNCCc2ccc(Br)cc21 (racemic) [Example 32, (R,S) 8-Bromo-1-methyl-2,3,4,5tetrahydro-1H-3-benzazepine] | 2.1
5 | COc1cc2c(cc1Cl)C(C)CNCC2 (racemic) [Example 2, (R,S) 8-Chloro-7-methoxy-1-methyl-2,3,4,5-tetrahydro-1H-3-benzazepine] | 4.5
6 | C=CCOc1cc2c(cc1Br)C(C)CNCC2 (racemic) [Example 5, (R,S) 7-Allyloxy-8-bromo-1-methyl-2,3,4,5tetrahydro-1H-3-benzazepine] | 12.1
7 | COc1cc2c(cc1I)C(C)CNCC2 (racemic) [Example 3, (R,S) 8-Iodo-7-methoxy-1-methyl-2,3,4,5taetrhydro-1H-3-benzazepine] | 1.4
8 | COc1cc2c(cc1Br)C(C)CNCC2 (racemic) [Example 1, (R,S) 8-Bromo-7-methoxy-1-methyl-2,3,4,5-tetrahydro-1H-3-benzazepine] | 4.2
